In PubChem BioAssay AID2060897 (Molecular Pharmacology Branch, DTP, NCI, 2025):
Blank lines part the entries; values can stand above or below the compound they belong to.

System: 966289-007-R4-J1-PDC complex spheroid viability
Assay: Anticancer human tumor 966289-007-R4-J1-PDC patient-derived pancreatic adenocarcinoma cell line growth inhibition [RAS]
Conditions: for IC50: curve of first compound; for viability, T/C: stronger effect = lower value
Outline: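 Multi-cell-type spheroids: tumor cells plus HUVEC endothelial cells and mesenchymal stem cells. RAS-pathway inhibitors were combined with targeted agents, each dosed in half-log steps down from clinical Cmax, or from 10 microM when Cmax was unknown.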

[1] = second compound 0.0316 µM, first compound 0.0316 µM
[2] = second compound 0.0316 µM, first compound 0.1 µM
[3] = second compound 0.0316 µM, first compound 0.316 µM
[4] = second compound 0.0316 µM, first compound 1 µM
[5] = second compound 0.0316 µM, first compound 3.16 µM
[6] = second compound 0.0316 µM, first compound 10 µM
[7] = second compound 0.1 µM, first compound 0.0316 µM
[8] = second compound 0.1 µM, first compound 0.1 µM
[9] = second compound 0.1 µM, first compound 0.316 µM
[10] = second compound 0.1 µM, first compound 1 µM
[11] = second compound 0.1 µM, first compound 3.16 µM
[12] = second compound 0.1 µM, first compound 10 µM
[13] = second compound 0.316 µM, first compound 0.0316 µM
[14] = second compound 0.316 µM, first compound 0.1 µM
[15] = second compound 0.316 µM, first compound 0.316 µM
[16] = second compound 0.316 µM, first compound 1 µM
[17] = second compound 0.316 µM, first compound 3.16 µM
[18] = second compound 0.316 µM, first compound 10 µM
[19] = second compound 1 µM, first compound 0.0316 µM
[20] = second compound 1 µM, first compound 0.1 µM
[21] = second compound 1 µM, first compound 0.316 µM
[22] = second compound 1 µM, first compound 1 µM
[23] = second compound 1 µM, first compound 3.16 µM
[24] = second compound 1 µM, first compound 10 µM
[25] = second compound 3.16 µM, first compound 0.0316 µM
[26] = second compound 3.16 µM, first compound 0.1 µM
[27] = second compound 10 µM, first compound 0.0316 µM
[28] = second compound 10 µM, first compound 0.1 µM
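Note: spheroids exposed to agents for one week before readout.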
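Throughout, for viability, T/C: percent viability relative to DMSO vehicle control wells as 100%.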

IC50 (second compound 0.00316 µM): 133 nM | IC50 (second compound 0.01 µM): 151 nM | IC50 (second compound 0.0316 µM): 171 nM | IC50 (second compound 0.1 µM): 156 nM | IC50 (second compound 0.316 µM): 154 nM | IC50 (second compound 1 µM): 125 nM
SMILES: CC1(O)CCCC1n1c(=O)c(C(F)F)cc2cnc(NC3CCN(S(C)(=O)=O)CC3)nc21 (stereo unspecified) + C=CC(=O)N1CCN(c2nc(OCC3CCCN3C)nc3c(F)c(-c4nc(N)cc(C)c4C(F)(F)F)c(Cl)cc23)C(C)C1
viability, T/C (second compound 0.00316 µM, first compound 0.0316 µM): 130% | viability, T/C (second compound 0.00316 µM, first compound 0.1 µM): 56.8% | viability, T/C (second compound 0.00316 µM, first compound 0.316 µM): 25% | viability, T/C (second compound 0.00316 µM, first compound 1 µM): 27% | viability, T/C (second compound 0.00316 µM, first compound 3.16 µM): 29.8% | viability, T/C (second compound 0.00316 µM, first compound 10 µM): 3.73% | viability, T/C (second compound 0.01 µM, first compound 0.0316 µM): 138% | viability, T/C (second compound 0.01 µM, first compound 0.1 µM): 66.5% | viability, T/C (second compound 0.01 µM, first compound 0.316 µM): 21.4% | viability, T/C (second compound 0.01 µM, first compound 1 µM): 28.2% | viability, T/C (second compound 0.01 µM, first compound 3.16 µM): 26.4% | viability, T/C (second compound 0.01 µM, first compound 10 µM): 3.99% | viability, T/C [1]: 129% | viability, T/C [2]: 66.3% | viability, T/C [3]: 26.9% | viability, T/C [4]: 24.9% | viability, T/C [5]: 26.2% | viability, T/C [6]: 3.83% | viability, T/C [7]: 121% | viability, T/C [8]: 60% | viability, T/C [9]: 28.8% | viability, T/C [10]: 27.8% | viability, T/C [11]: 27.9% | viability, T/C [12]: 3.1% | viability, T/C [13]: 117% | viability, T/C [14]: 61.9% | viability, T/C [15]: 25.1% | viability, T/C [16]: 27.7% | viability, T/C [17]: 23.1% | viability, T/C [18]: 3.69% | viability, T/C [19]: 123% | viability, T/C [20]: 56.8% | viability, T/C [21]: 21.2% | viability, T/C [22]: 24% | viability, T/C [23]: 22.8% | viability, T/C [24]: 3.51%

IC50 (second compound 0.0316 µM): 46.5 nM | IC50 (second compound 0.1 µM): 49.9 nM | IC50 (second compound 0.316 µM): 38.8 nM | IC50 (second compound 1 µM): 42.6 nM | IC50 (second compound 3.16 µM): 41.5 nM | IC50 (second compound 10 µM): 23.3 nM
SMILES: CC(C)n1nc(-c2ccc3oc(N)nc3c2)c2c(N)ncnc21 + C#Cc1c(F)ccc2cc(O)cc(-c3ncc4c(N5CC6CCC(C5)N6)nc(OCC56CCCN5CC(F)C6)nc4c3F)c12
viability, T/C (second compound 0.0316 µM, first compound 0.000316 µM): 99.2% | viability, T/C (second compound 0.0316 µM, first compound 0.001 µM): 96.8% | viability, T/C (second compound 0.0316 µM, first compound 0.00316 µM): 91.8% | viability, T/C (second compound 0.0316 µM, first compound 0.01 µM): 106% | viability, T/C [1]: 61.8% | viability, T/C [2]: 26.6% | viability, T/C (second compound 0.1 µM, first compound 0.000316 µM): 104% | viability, T/C (second compound 0.1 µM, first compound 0.001 µM): 99.4% | viability, T/C (second compound 0.1 µM, first compound 0.00316 µM): 104% | viability, T/C (second compound 0.1 µM, first compound 0.01 µM): 110% | viability, T/C [7]: 67% | viability, T/C [8]: 24.1% | viability, T/C (second compound 0.316 µM, first compound 0.000316 µM): 111% | viability, T/C (second compound 0.316 µM, first compound 0.001 µM): 103% | viability, T/C (second compound 0.316 µM, first compound 0.00316 µM): 114% | viability, T/C (second compound 0.316 µM, first compound 0.01 µM): 109% | viability, T/C [13]: 56.3% | viability, T/C [14]: 21% | viability, T/C (second compound 1 µM, first compound 0.000316 µM): 108% | viability, T/C (second compound 1 µM, first compound 0.001 µM): 118% | viability, T/C (second compound 1 µM, first compound 0.00316 µM): 119% | viability, T/C (second compound 1 µM, first compound 0.01 µM): 126% | viability, T/C [19]: 59.7% | viability, T/C [20]: 22% | viability, T/C (second compound 3.16 µM, first compound 0.000316 µM): 108% | viability, T/C (second compound 3.16 µM, first compound 0.001 µM): 113% | viability, T/C (second compound 3.16 µM, first compound 0.00316 µM): 125% | viability, T/C (second compound 3.16 µM, first compound 0.01 µM): 105% | viability, T/C [25]: 58.7% | viability, T/C [26]: 22.4% | viability, T/C (second compound 10 µM, first compound 0.000316 µM): 97.4% | viability, T/C (second compound 10 µM, first compound 0.001 µM): 94.1% | viability, T/C (second compound 10 µM, first compound 0.00316 µM): 126% | viability, T/C (second compound 10 µM, first compound 0.01 µM): 96.8% | viability, T/C [27]: 33.2% | viability, T/C [28]: 17%

IC50 (second compound 0.0316 µM): > 10000 nM | IC50 (second compound 0.1 µM): > 10000 nM | IC50 (second compound 0.316 µM): > 10000 nM | IC50 (second compound 1 µM): > 10000 nM | IC50 (second compound 3.16 µM): > 10000 nM | IC50 (second compound 10 µM): > 10000 nM
SMILES: CC(Nc1ccc2c(c1)OCCn1cc(N3C(=O)OCC3C(F)F)nc1-2)C(N)=O (stereo unspecified) + C#Cc1c(F)ccc2cc(O)cc(-c3ncc4c(N5CC6CCC(C5)N6)nc(OCC56CCCN5CC(F)C6)nc4c3F)c12
viability, T/C [1]: 108% | viability, T/C [2]: 106% | viability, T/C [3]: 100% | viability, T/C [4]: 95.5% | viability, T/C [5]: 107% | viability, T/C [6]: 86.8% | viability, T/C [7]: 104% | viability, T/C [8]: 110% | viability, T/C [9]: 101% | viability, T/C [10]: 112% | viability, T/C [11]: 111% | viability, T/C [12]: 86.9% | viability, T/C [13]: 110% | viability, T/C [14]: 102% | viability, T/C [15]: 91.6% | viability, T/C [16]: 95.3% | viability, T/C [17]: 94.8% | viability, T/C [18]: 77.3% | viability, T/C [19]: 109% | viability, T/C [20]: 109% | viability, T/C [21]: 121% | viability, T/C [22]: 113% | viability, T/C [23]: 115% | viability, T/C [24]: 81.2% | viability, T/C [25]: 104% | viability, T/C [26]: 95% | viability, T/C (second compound 3.16 µM, first compound 0.316 µM): 115% | viability, T/C (second compound 3.16 µM, first compound 1 µM): 91.6% | viability, T/C (second compound 3.16 µM, first compound 3.16 µM): 97% | viability, T/C (second compound 3.16 µM, first compound 10 µM): 83.1% | viability, T/C [27]: 98.9% | viability, T/C [28]: 113% | viability, T/C (second compound 10 µM, first compound 0.316 µM): 119% | viability, T/C (second compound 10 µM, first compound 1 µM): 104% | viability, T/C (second compound 10 µM, first compound 3.16 µM): 95.9% | viability, T/C (second compound 10 µM, first compound 10 µM): 90.7%
